Experiments:
[1] = system: crabgrass; assay: Test B pre/postemergence crabgrass; type: in vivo, Digitaria sanguinalis
How it was run: (§1)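 Response is a visual 0-to-10 score relative to untreated plants, where 0 means no effect and 10 means complete control, taken twelve to sixteen days after application. Treatments went onto soil at planting and onto foliage of 1- to 4-leaf plants, using a surfactant-containing non-phytotoxic solvent.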

[2] = system: surinam grass; assay: Test B pre/postemergence surinam grass; type: in vivo, Brachiaria decumbens
How it was run: as §1

[3] = system: corn; assay: Test B pre/postemergence corn; type: in vivo, Zea mays
How it was run: as §1

[4] = system: cocklebur; assay: Test B pre/postemergence cocklebur; type: in vivo, Xanthium strumarium
How it was run: as §1

[5] = Postemergence, Rate 62 g/ha, scale 0 to 10, 0 is no effect, 10 is complete control
[6] = Postemergence, Rate 125 g/ha, scale of 0 to 10 where 0 is no effect and 10 is complete control
[7] = Postemergence, Rate 250 g/ha, scale 0 to 10, 0 no effect, 10 complete control
[8] = Preemergence, Rate 62 g/ha, scale 0 to 10 (0 no effect, 10 complete control)
[9] = Preemergence, Rate 125 g/ha, scale 0 to 10 (0 no effect, 10 complete control)
[10] = Preemergence, Rate 250 g/ha, scale of 0 to 10 where 0 is no effect and 10 is complete control
[11] = Preemergence, Rate 500 g/ha, scale 0 (no effect) to 10 (complete control)
[12] = Rate 125 g/ha, Postemergence, scale 0 to 10, 0 no effect, 10 complete control
[13] = Rate 500 g/ha, Postemergence, scale of 0 to 10 where 0 is no effect and 10 is complete control
[14] = Rate 500 g/ha, Postemergence, scale 0 to 10, 0 no effect, 10 complete control
[15] = Preemergence, Rate 62 g/ha, scale 0 to 10, 0 is no effect, 10 is complete control
[16] = Postemergence, Rate 125 g/ha, scale 0 to 10, 0 is no effect, 10 is complete control
[17] = Postemergence, Rate 250 g/ha, scale 0 to 10, 0 is no effect, 10 is complete control
[18] = Preemergence, Rate 500 g/ha, scale of 0 to 10 where 0 is no effect and 10 is complete control
[19] = Rate 62 g/ha, Postemergence, scale of 0 to 10 where 0 is no effect and 10 is complete control
[20] = Rate 500 g/ha, Postemergence, 0 to 10 scale (0 no effect, 10 complete control)
[21] = Postemergence, Rate 62 g/ha, scale of 0 to 10, 0 is no effect, 10 is complete control
[22] = Postemergence, Rate 500 g/ha, scale 0 to 10, 0 is no effect, 10 is complete control
[23] = Preemergence, Rate 125 g/ha, scale 0 to 10, 0 is no effect, 10 is complete control
[24] = Rate 250 g/ha, Postemergence, scale of 0 to 10 where 0 is no effect and 10 is complete control

CC(C)N(C(=O)n1oc(=O)n(-c2cnn(C)c2Cl)c1=O)c1ccc(F)cc1 [Compound 97]
Crabgrass plant response rating [1, 5]: 0
Crabgrass plant response rating [1, 6]: 2
Crabgrass plant response rating [1, 7]: 4
Crabgrass plant response rating [1, 8]: 0
Plant response rating, Crabgrass [1, 9]: 0
Plant response rating, Crabgrass [1, 10]: 1
Crabgrass plant response rating [1, 11]: 4
B. signalgrass plant response rating [2, 5]: 0
B. signalgrass plant response rating [2, 7]: 0
B. signalgrass plant response rating [2, 8]: 0
Plant response rating, B. signalgrass [2, 9]: 2
Plant response rating, B. signalgrass [2, 10]: 3
B. signalgrass plant response rating [2, 11]: 4
B. signalgrass plant response rating [2, 12]: 0
B. signalgrass plant response rating [2, 13]: 0
Corn plant response rating [3, 5]: 0
Corn plant response rating [3, 6]: 0
Corn plant response rating [3, 7]: 0
Corn plant response rating [3, 8]: 0
Plant response rating, Corn [3, 9]: 0
Plant response rating, Corn [3, 10]: 0
Corn plant response rating [3, 11]: 0
Corn plant response rating [3, 14]: 0
Cocklebur plant response rating [4, 5]: 0
Cocklebur plant response rating [4, 6]: 0
Cocklebur plant response rating [4, 7]: 1
Cocklebur plant response rating [4, 8]: 0
Plant response rating, Cocklebur [4, 9]: 0
Plant response rating, Cocklebur [4, 10]: 0
Cocklebur plant response rating [4, 11]: 0
Cocklebur plant response rating [4, 14]: 1

Cc1ccccc1-n1c(=O)on(C(=O)N(c2ccc(F)c(F)c2)C(C)C)c1=O [Compound 48]
Crabgrass plant response rating [1, 5]: 0
Crabgrass plant response rating [1, 7]: 3
Plant response rating, Crabgrass [1, 15]: 1
Plant response rating, Crabgrass [1, 9]: 6
Plant response rating, Crabgrass [1, 10]: 7
Crabgrass plant response rating [1, 11]: 7
Crabgrass plant response rating [1, 12]: 1
Crabgrass plant response rating [1, 14]: 8
B. signalgrass plant response rating [2, 5]: 0
B. signalgrass plant response rating [2, 7]: 0
Plant response rating, B. signalgrass [2, 15]: 0
Plant response rating, B. signalgrass [2, 9]: 0
Plant response rating, B. signalgrass [2, 10]: 0
B. signalgrass plant response rating [2, 11]: 0
B. signalgrass plant response rating [2, 12]: 0
B. signalgrass plant response rating [2, 13]: 0
Corn plant response rating [3, 5]: 0
Corn plant response rating [3, 7]: 0
Plant response rating, Corn [3, 15]: 0
Plant response rating, Corn [3, 9]: 0
Plant response rating, Corn [3, 10]: 0
Corn plant response rating [3, 11]: 0
Corn plant response rating [3, 12]: 0
Corn plant response rating [3, 14]: 0
Cocklebur plant response rating [4, 5]: 0
Cocklebur plant response rating [4, 7]: 0
Plant response rating, Cocklebur [4, 15]: 0
Plant response rating, Cocklebur [4, 9]: 0
Plant response rating, Cocklebur [4, 10]: 0
Cocklebur plant response rating [4, 11]: 0
Cocklebur plant response rating [4, 12]: 0
Cocklebur plant response rating [4, 14]: 2

CCOc1nc(C(F)(F)F)c(Cn2c(=O)on(C(=O)N(c3ccccc3)C(C)C)c2=O)s1 [Compound 379]
Plant response rating, Crabgrass [1, 16]: 0
Plant response rating, Crabgrass [1, 17]: 0
Plant response rating, Crabgrass [1, 8]: 0
Crabgrass plant response rating (0 to 10 scale) ([1]; Preemergence, Rate 125 g/ha): 0
Crabgrass plant response rating [1, 10]: 7
Crabgrass plant response rating [1, 18]: 8
Crabgrass plant response rating [1, 19]: 0
Plant response rating, Crabgrass [1, 14]: 0
Plant response rating, B. signalgrass [2, 16]: 0
Plant response rating, B. signalgrass [2, 17]: 0
Plant response rating, B. signalgrass [2, 8]: 0
B. signalgrass plant response rating (0 to 10 scale, 0 is no effect, 10 is complete control) ([2]; Preemergence, Rate 125 g/ha): 0
B. signalgrass plant response rating [2, 10]: 0
B. signalgrass plant response rating [2, 18]: 0
B. signalgrass plant response rating [2, 19]: 0
Plant response rating, B. signalgrass [2, 14]: 0
Plant response rating, Corn [3, 16]: 0
Plant response rating, Corn [3, 17]: 0
Plant response rating, Corn [3, 8]: 0
Corn plant response rating (0 to 10 scale) ([3]; Preemergence, Rate 125 g/ha): 0
Corn plant response rating [3, 10]: 0
Corn plant response rating [3, 18]: 0
Corn plant response rating [3, 19]: 0
Plant response rating, Corn [3, 14]: 0
Plant response rating, Cocklebur [4, 16]: 0
Plant response rating, Cocklebur [4, 17]: 0
Plant response rating, Cocklebur [4, 8]: 0
Cocklebur plant response rating (0 to 10 scale) ([4]; Preemergence, Rate 125 g/ha): 0
Cocklebur plant response rating [4, 10]: 0
Cocklebur plant response rating [4, 18]: 0
Cocklebur plant response rating [4, 19]: 0
Plant response rating, Cocklebur [4, 14]: 0

CC(C)N(C(=O)n1oc(=O)n(-c2ccccc2C(F)(F)F)c1=O)c1ccc(F)cc1 [Compound 15]
Crabgrass plant response rating [1, 5]: 0
Crabgrass plant response rating [1, 7]: 3
Plant response rating, Crabgrass [1, 15]: 0
Plant response rating, Crabgrass [1, 9]: 2
Crabgrass plant response rating [1, 11]: 10
Crabgrass plant response rating [1, 12]: 1
Crabgrass plant response rating [1, 20]: 8
B. signalgrass plant response rating [2, 5]: 0
B. signalgrass plant response rating [2, 7]: 0
Plant response rating, B. signalgrass [2, 15]: 0
Plant response rating, B. signalgrass [2, 9]: 0
Plant response rating, B. signalgrass [2, 10]: 0
B. signalgrass plant response rating [2, 11]: 0
B. signalgrass plant response rating [2, 12]: 0
B. signalgrass plant response rating [2, 20]: 0
Corn plant response rating [3, 5]: 0
Corn plant response rating [3, 7]: 0
Plant response rating, Corn [3, 15]: 0
Plant response rating, Corn [3, 9]: 0
Corn plant response rating [3, 11]: 0
Corn plant response rating [3, 12]: 0
Corn plant response rating [3, 20]: 0
Cocklebur plant response rating [4, 5]: 0
Cocklebur plant response rating [4, 7]: 5
Plant response rating, Cocklebur [4, 15]: 0
Plant response rating, Cocklebur [4, 9]: 0
Cocklebur plant response rating [4, 11]: 0
Cocklebur plant response rating [4, 12]: 0
Cocklebur plant response rating [4, 20]: 8

CCC=CCn1c(=O)on(C(=O)N(c2ccc(Cl)cc2)C(C)C)c1=O [Compound 552]
Crabgrass plant response rating [1, 21]: 3
Crabgrass plant response rating [1, 16]: 9
Plant response rating, Crabgrass [1, 22]: 9
Crabgrass plant response rating [1, 8]: 9
Crabgrass plant response rating [1, 23]: 9
Crabgrass plant response rating (0 to 10 scale) ([1]; Preemergence, Rate 250 g/ha): 8
Crabgrass plant response rating [1, 18]: 10
B. signalgrass plant response rating [2, 21]: 0
B. signalgrass plant response rating [2, 16]: 0
Plant response rating, B. signalgrass [2, 22]: 0
B. signalgrass plant response rating [2, 8]: 4
B. signalgrass plant response rating [2, 23]: 8
B. signalgrass plant response rating [2, 18]: 9
Plant response rating, B. signalgrass [2, 24]: 0
Corn plant response rating [3, 21]: 0
Corn plant response rating [3, 16]: 0
Plant response rating, Corn [3, 22]: 0
Corn plant response rating [3, 8]: 0
Corn plant response rating [3, 23]: 0
Corn plant response rating (0 to 10 scale) ([3]; Preemergence, Rate 250 g/ha): 0
Corn plant response rating [3, 18]: 0
Plant response rating, Corn [3, 24]: 0
Cocklebur plant response rating [4, 21]: 0
Cocklebur plant response rating [4, 16]: 0
Plant response rating, Cocklebur [4, 22]: 4
Cocklebur plant response rating [4, 8]: 0
Cocklebur plant response rating [4, 23]: 0
Cocklebur plant response rating (0 to 10 scale) ([4]; Preemergence, Rate 250 g/ha): 0
Cocklebur plant response rating [4, 18]: 0
Plant response rating, Cocklebur [4, 24]: 2
